In ChEMBL document CHEMBL1156808, “Synthesis and characterization of iodinated tetrahydroquinolines targeting the G protein-coupled estrogen receptor GPR30” (J Med Chem, 2010):

System: Muscle tissue
Assay: Biodistribution in muscle of iv dosed NCr nu/nu mouse xenografted with GPR30 overexpressing human Hec50 cells after 2 hrs
Type: ADME, organism-based
Details: in vivo

`O=C(NCCc1ccc2c(c1)[C@@H]1C=CC[C@@H]1[C@H](c1cc3c(cc1Br)OCO3)N2)Nc1cccc([125I])c1` was tested. Which Drug uptake did it give?
Its Drug uptake is 0.52 % ID/g.
